# Results as given in ChEMBL document CHEMBL5291721, “A preclinical secondary pharmacology resource illuminates target-adverse drug reaction associations of marketed drugs” (Nat Commun, 2023).
# How the values were obtained:
# [1] = target: T1, Oxysterols receptor LXR-beta (Homo sapiens, UniProt P55055); type: functional
# T1 sequence (P55055 whole entry): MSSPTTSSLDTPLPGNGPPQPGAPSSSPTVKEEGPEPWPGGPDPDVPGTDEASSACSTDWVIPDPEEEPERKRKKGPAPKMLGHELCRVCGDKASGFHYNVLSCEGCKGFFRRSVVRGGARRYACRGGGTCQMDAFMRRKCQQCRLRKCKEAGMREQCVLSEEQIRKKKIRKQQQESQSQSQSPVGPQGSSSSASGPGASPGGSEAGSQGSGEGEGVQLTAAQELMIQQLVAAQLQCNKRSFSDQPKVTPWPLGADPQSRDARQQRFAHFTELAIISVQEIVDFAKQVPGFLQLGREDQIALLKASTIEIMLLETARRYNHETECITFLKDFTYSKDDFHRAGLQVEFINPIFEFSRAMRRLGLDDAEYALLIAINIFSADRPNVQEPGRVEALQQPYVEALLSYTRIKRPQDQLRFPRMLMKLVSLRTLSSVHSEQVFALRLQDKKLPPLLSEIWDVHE
# [2] = target: T2, Oxysterols receptor LXR-alpha (Homo sapiens, UniProt Q13133); type: functional
# T2 sequence (Q13133 whole entry): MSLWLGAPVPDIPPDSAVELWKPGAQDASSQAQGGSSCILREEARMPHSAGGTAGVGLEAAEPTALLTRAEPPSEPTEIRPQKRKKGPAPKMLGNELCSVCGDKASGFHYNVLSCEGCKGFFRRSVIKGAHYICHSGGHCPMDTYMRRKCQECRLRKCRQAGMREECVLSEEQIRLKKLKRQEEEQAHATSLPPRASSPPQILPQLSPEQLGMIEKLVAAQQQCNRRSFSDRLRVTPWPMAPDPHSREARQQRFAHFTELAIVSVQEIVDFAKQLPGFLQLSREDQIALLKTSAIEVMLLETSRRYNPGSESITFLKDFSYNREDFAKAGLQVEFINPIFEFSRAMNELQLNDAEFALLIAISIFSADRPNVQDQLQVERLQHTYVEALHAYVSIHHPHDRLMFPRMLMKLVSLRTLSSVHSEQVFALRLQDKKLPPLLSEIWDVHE
# Bile acid receptor [3] = target: T3, Bile acid receptor (Homo sapiens, UniProt Q96RI1); type: functional
# T3 sequence (Q96RI1 whole entry): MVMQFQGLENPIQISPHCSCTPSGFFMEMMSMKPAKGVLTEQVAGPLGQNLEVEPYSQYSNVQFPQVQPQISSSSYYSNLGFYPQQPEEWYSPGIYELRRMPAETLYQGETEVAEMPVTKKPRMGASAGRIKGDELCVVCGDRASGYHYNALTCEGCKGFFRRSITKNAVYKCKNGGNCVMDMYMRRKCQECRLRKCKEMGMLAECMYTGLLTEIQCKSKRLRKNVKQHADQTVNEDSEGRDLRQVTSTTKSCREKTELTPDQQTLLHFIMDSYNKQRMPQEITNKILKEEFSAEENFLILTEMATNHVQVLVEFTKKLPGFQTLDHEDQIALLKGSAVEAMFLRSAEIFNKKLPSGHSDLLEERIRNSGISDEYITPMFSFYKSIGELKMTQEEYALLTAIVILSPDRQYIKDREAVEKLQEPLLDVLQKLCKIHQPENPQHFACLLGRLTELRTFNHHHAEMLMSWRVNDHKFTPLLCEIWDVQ
# Bile acid receptor [4] = target: T3, Bile acid receptor; type: functional; remark: listed apart in the source
# [5] = target: T4, Retinoic acid receptor alpha (Homo sapiens, UniProt P10276); type: functional, cell-based
# T4 sequence (P10276 whole entry): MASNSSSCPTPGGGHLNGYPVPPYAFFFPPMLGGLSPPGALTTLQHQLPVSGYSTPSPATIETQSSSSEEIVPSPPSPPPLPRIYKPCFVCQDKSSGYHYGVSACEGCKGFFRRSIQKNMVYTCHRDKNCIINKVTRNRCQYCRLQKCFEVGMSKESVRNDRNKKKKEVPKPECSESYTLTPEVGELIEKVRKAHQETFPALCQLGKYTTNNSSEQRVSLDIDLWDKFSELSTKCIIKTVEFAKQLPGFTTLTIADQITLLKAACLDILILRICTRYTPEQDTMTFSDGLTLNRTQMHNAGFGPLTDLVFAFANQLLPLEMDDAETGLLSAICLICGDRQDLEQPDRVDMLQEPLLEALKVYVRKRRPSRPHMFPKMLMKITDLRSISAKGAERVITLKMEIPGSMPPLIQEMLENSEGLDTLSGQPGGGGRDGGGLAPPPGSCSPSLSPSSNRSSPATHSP
# [6] = target: T4, Retinoic acid receptor alpha; type: functional, cell-based; remark: listed apart in the source
# [7] = target: T5, Retinoic acid receptor beta (Homo sapiens, UniProt P10826); type: functional, cell-based
# T5 sequence (P10826 whole entry): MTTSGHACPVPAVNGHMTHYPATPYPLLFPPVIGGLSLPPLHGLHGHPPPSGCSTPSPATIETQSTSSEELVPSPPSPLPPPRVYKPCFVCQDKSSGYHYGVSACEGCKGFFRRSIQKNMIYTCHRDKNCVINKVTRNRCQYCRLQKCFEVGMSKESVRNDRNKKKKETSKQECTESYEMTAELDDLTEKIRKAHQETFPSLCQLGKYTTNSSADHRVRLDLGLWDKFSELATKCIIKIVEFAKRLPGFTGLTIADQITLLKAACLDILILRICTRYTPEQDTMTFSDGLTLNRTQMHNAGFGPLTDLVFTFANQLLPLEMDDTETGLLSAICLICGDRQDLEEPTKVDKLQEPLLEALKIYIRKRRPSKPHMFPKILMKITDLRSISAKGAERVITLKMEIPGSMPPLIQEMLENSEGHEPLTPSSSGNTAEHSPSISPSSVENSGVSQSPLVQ
# [8] = target: T6, 5-hydroxytryptamine receptor 1A (Homo sapiens, UniProt P08908)
# T6 sequence (P08908 whole entry): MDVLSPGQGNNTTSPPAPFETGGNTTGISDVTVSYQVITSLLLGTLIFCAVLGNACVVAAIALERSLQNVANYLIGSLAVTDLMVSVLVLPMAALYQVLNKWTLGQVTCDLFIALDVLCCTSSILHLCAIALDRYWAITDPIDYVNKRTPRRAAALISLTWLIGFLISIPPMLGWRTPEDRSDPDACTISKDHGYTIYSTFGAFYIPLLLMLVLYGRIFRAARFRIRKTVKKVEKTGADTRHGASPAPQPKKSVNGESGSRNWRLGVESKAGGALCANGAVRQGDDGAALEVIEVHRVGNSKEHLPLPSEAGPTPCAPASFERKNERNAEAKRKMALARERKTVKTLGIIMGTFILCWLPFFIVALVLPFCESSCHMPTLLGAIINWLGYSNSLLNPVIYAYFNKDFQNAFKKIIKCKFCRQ
# D(1A) dopamine receptor = D(1A) dopamine receptor (Homo sapiens, UniProt P21728)
# Note: assay procedure not described here.
# Chain of D(1A) dopamine receptor (P21728 whole entry): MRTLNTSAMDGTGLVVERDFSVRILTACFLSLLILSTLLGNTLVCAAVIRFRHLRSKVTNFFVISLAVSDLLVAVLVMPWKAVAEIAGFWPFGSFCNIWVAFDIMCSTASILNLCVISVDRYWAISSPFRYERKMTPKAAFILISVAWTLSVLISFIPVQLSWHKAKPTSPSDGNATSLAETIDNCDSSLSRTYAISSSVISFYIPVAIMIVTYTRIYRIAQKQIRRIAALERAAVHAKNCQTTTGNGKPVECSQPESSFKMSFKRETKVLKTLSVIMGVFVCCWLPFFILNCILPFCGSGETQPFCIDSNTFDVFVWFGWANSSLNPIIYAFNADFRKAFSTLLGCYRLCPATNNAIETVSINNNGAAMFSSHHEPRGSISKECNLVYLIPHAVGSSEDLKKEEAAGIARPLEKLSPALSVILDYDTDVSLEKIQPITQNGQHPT
Compound,AC50 [1],AC50 [2],AC50 (Bile acid receptor [3]),AC50 (Bile acid receptor [4]),AC50 [5],AC50 [6],AC50 [7],AC50 [8],AC50 (D(1A) dopamine receptor)
Cc1c(C(=O)NN2CCCCC2)nn(-c2ccc(Cl)cc2Cl)c1-c1ccc(Cl)cc1 [RIMONABANT],> 30 µM,> 30 µM,> 30 µM,> 30 µM,> 30 µM,> 30 µM,> 30 µM,,
O=C(OCC(O)CO)c1ccccc1Nc1ccnc2cc(Cl)ccc12 (stereo not drawn) [GLAFENINE],,,,,,,,> 30 µM,> 30 µM
Cc1cn([C@H]2C=C[C@@H](CO)O2)c(=O)[nH]c1=O [STAVUDINE],,,,,,,,> 30 µM,> 30 µM
CN1C(C(=O)Nc2ccccn2)=C(O)c2sc(Cl)cc2S1(=O)=O [LORNOXICAM],> 30 µM,> 30 µM,> 30 µM,> 30 µM,> 30 µM,> 30 µM,> 30 µM,,
